Data reported in patent US11058702B2 (EMEK, Inc., priority 2014, dated 2021).
Where “and” joins values, the source holds several entries; their conditions need not be identical. Equal entries are not always repeated. Where two headings read alike, the source gives them in different places.

Experiments:
[1] = Plasma PK of once daily po IPdR x 28 days; assay type: in vivo, Fischer-344 rats
Text: Cancer research. 1994; 54(10):2695-700. […] Plasma samples are processed by solvent deproteinization.
This study was requested by the FDA as part of the pre-clinical testing of po IPdR prior to IND submission. […] Thus, the PK profile for po IPdR appears quite similar in mice and rats.

[2] = set-up: species or system ferret; settings: in vivo
[3] = cited from earlier work
[4] = in vivo
Text: It has been previously reported that kinetically distinct forms of aldehyde oxidase exist in male and female rodent liver, and that these distinct forms occur as a result of differences in redox state and not in cDNA sequencing. […] A high degree of homology exists between mouse and human aldehyde oxidase.

[5] = system: cellular DNA of HCT-116, HT-29, U251 xenografts, bone marrow, intestine, liver
Description: After fixing the single-cell suspension with 70% ethanol in normal saline, the DNA is partially denatured with 2N HCl and subsequently reacted with a mouse anti-IUdR monoclonal antibody (Becton-Dickinson) followed by incubation with a fluorescein isothiocyanate-labeled goat anti-mouse secondary antibody. Finally, the nuclei are incubated with propidium iodide (PI) to label the DNA. Flow cytometric analysis is performed using two color analysis with emissions of fluorescein isothiocyanate detected with 530 nm short pass filters and PI detected with 630 nm long pass filters. In various embodiments, a minimum of 10,000 events is analyzed per sample, and the percentage of labeled cells is calculated.
Subsequently, single cells are disrupted and the DNA is enzymatically digested into free nucleosides. DNA extraction and digestion are performed by incubation with 10% trichloroacetic acid, followed by RNA digestion in 0.25M NaOH and enzymatic digestion with DNA-ase, alkaline phosphate and phosphodiesterase in MgCl and potassium phosphate buffer. A Waters 600E solvent delivery system on a 3.9×300 mm μ Bondapak reverse-phase column (Waters Corp, Milford, Mass.) is used. The mobile phase consists of 100 mm of sodium acetate buffer (pH 5.45) plus 7% (v/v) acetonitrile. Peak identification and quantitation of IUdR and thymidine (TdR) are performed against authentic nucleoside standards. The % IUdR-DNA replacement (or % TdR replacement) is calculated according to:

[6] = system: herpes simplex virus-infected HeLa cells; settings: cited from earlier work
[7] = system: locally advanced pancreas cancer; assay: Predicted clinical use of IPdR + gemcitabine + RT; assay type: in vivo, human; settings: from 40%
Text: The patient will continue to take oral IPdR in addition to receiving gemcitabine therapy throughout the course of RT, and will discontinue IPdR following completion of RT.

[8] = Plasma pharmacokinetics of po IPdR in athymic mice
Description: These nucleoside analogs are extracted from the plasma by the addition of 5-chloro-2′-deoxyuridine (internal standard) and acetonitrile. The samples are redissolved in deionized water for HPLC analysis using a Spectra-Physics P2000 pump and UV2000 detection (Spectra-Physics Analytical, Fremont, Calif.) on a 3.9×300 mm μ Bondapak C18 reverse phase column (Waters Associates, Milford, Mass.). […] Plasma samples are processed by solvent deproteinization. […] All solvents should be high-pressure liquid chromatography (HPLC) grade.

[9] = system: HT-29, HCT 116, U251 and U87 xenografts; assay: Tumor regrowth assay of response to RT; assay type: in vivo, athymic mice
IPdR aldehyde oxidase = settings: intestine, bone marrow, lung and kidney; cited from earlier work
in vivo = settings: daily po bolus (gastric gavage) for 6 days
Description: No further dose escalations were used because of the increased risk of pulmonary aspiration with larger drug volumes (≥2000 mg/kg/d).

high-grade gliomas = assay: Predicted clinical use of IPdR + RT (+TMZ); assay type: in vivo, human
Text: Dysregulation of other DNA repair pathways, including both MMR and BER, are reported to contribute to the aggressive biology and poor prognosis of high-grade gliomas. In a recent comprehensive analysis of the messenger ribonucleic acid (mRNA) expression levels in 157 DNA repair genes in two large, publically available, gene expression data sets from 699 GBM tumors, the expression levels of a key BER glycolylase (APE1) and a key MMR protein (PMS2) were reported to be independent prognostic biomarkers of survival following treatment with RT alone or TMZ alone. Based on this novel DNA repair prognostic index for GBM and other high-grade gliomas, future clinical studies of the use of RT+IPdR would stratify for specific molecular subsets of high-grade gliomas with intact MGMT (i.e. unmethylated promoter) and deficient MMR. […] In both clinical scenarios, the enhanced IPdR-mediated radiosensitization would be predicted to improve the duration of survival by 50%, as reflected in the early trials of ci IUdR+RT (Table 1).
The patient will initially undergo maximal surgical resection, with a goal of <5% residual disease (the infiltrative nature of high-grade gliomas dictates this goal). […] The patient will continue TMZ and IPdR throughout the course of RT.

chordoma = assay: Predicted clinical use of IPdR + proton therapy; assay type: in vivo, human; settings: IPdR added to PT
Text: The patient will continue to take oral IPdR throughout the course of PT, and will discontinue IPdR following completion of PT.
PT as a modality of RT is gaining popularity as it allows delivery of higher doses of IR with equivalent or less toxicity (i.e. the TI of PT is higher than that of conventional RT). The use of PT, however, is limited by availability (limited number of PT centers), feasibility (logistics involved in the administration of PT formidable), and the cost (cost of PT is, on average, 3-5 times the cost of conventional RT).

[10] = system: locally advanced rectal cancer; assay: Predicted clinical use of po IPdR + RT + capecitabine; assay type: in vivo, human; settings: po IPdR added to RT+capecitabine
Text: The biochemical and cellular interactions of RT+FP are felt to result from inhibition of the enzyme, thymidylate synthetase (TS) by the FP monophosphate metabolite, FdUMP, leading to decreased (or unbalanced) nucleotide pools necessary for DNA synthesis and decreased DNA repair following RT damage. […] The clinical and PK data from this ongoing clinical trial will be used in the design of a future Phase II clinical trial of IPdR+RT+twice daily po capecitabine as pre-operative therapy in patients with locally advanced rectal cancer.
The patient will continue to take oral IPdR in addition to capecitabine therapy throughout the course of RT, and will discontinue IPdR and capecitabine following completion of RT.

AP site = settings: cited from earlier work
human cancer cell models = assay: IUdR+MX in experimental human cancer cell models; assay type: cell-based
Text: BER processing typically leads to chemotherapy drug and IR resistance. Consequently, the recognition and detection of BER-deficient cancers and/or the development of chemical inhibitors of specific BER enzymes can reverse alkylating and anti-metabolite drug resistance, as well as IR resistance. Based in part on the pre-clinical results from Dr. Kinsella's lab, methoxyamine (MX), a chemical inhibitor of BER, is currently undergoing clinical testing as TRC-102 in combination with chemotherapy drugs including temozolomide. MX is a small organic amine derivative of alkoxyamine that blocks the short patch BER pathway by covalently binding the AP site formed by a specific glycosylase, rendering it refractory to the catalytic activity of AP endonuclease 1. A MX-bound AP site is repaired much more slowly (>300×) than a normal AP site, and enhances cell death.

[11] = human colorectal and glioblastoma xenografts
[12] = IPdR+TMZ+RT, MGMT promoter methylated GBM

For O=c1ncc(I)cn1[C@H]1C[C@H](O)[C@@H](CO)O1 [IPdR], the “Cmax values for IPdR with increasing dose” value ([1]; 0.2 or 1.0 gm/kg/day) was “less than dose proportional”, the “IUdR AUC values vs dose” value ([1]; after po IPdR) was “proportional with increasing dose” and the “time of peak IUdR concentrations” value ([1]; after po IPdR dosing) was at most 15 min. For the same compound, the “mean half-life for IUdR” value ([1]; females, after po IPdR) was 8 h, the “mean elimination half-life for IPdR” value ([1]; highest dose) was about 5 h and the “mean half-life for IUdR” value ([1]; males, after po IPdR) was 6 h. The “absorption of po IPdR” value ([1]; rat, in vivo, po) was “not dependent on sex, dose, or single (Day 1) versus multiple daily dosings (Day 28)”, the “time of maximal concentrations of IPdR” value ([1]; single doses of 1.0 gm/kg/day) was 90 min and the “AUC values for IPdR after 28 days” value ([1]; vs Day 1) was “less than those observed after Day 1”. For the same compound, the “blood cell counts, liver function tests, kidney function tests, urinalysis” value [2] was “No significant abnormalities”, the “gross findings at complete necropsy” value [2] was “no anatomic lesions” and the “hematologic, biochemical, or histopathologic changes” value [2] was “no significant hematologic,”. The “histology of CNS tissues” value [2] was “No histological changes”, the “kidney and uterus weights” value [2] was “decreased” and the liver weights [2] was “increased”. For the same compound, the “microscopic changes in liver” value [2] was “minimal to moderate cytoplasmic vacuolation of hepatocytes”, the “weight loss at highest dose” value [2] was “species. Noted mild weight” and the “plasma concentrations of IUdR vs oral dose of IPdR” value ([3]; 150 mg to 2400 mg) was “generally increased”. For the same compound, the “peak IUdR plasma levels” value ([3]; IPdR 2400 mg po, 6 patients) was 4.0 ± 1.02 µmol/L, the IUdR half-life ([3]; IPdR 2400 mg po) was 1.5 h and the “time IUdR plasma levels remained above 1 umol/L” value ([3]; IPdR 2400 mg po) was 3 to 4 h. The “time to peak IUdR plasma levels” value ([3]; IPdR 2400 mg po) was 1.67 ± 1.21 h, the toxicities ([3]; po IPdR 150 mg-2400 mg) was “No toxicities” and the “IUdR levels decreasing over 8 hours to” value ([3]; po IPdR dose of 2400 mg) was 1 µM. For the same compound, the “duration of peak plasma levels of IUdR” value ([3]; po IPdR dose of 2400 mg) was 4 h, the “peak plasma levels of IUdR” value ([3]; po IPdR dose of 2400 mg) was over 4 µM and the “transient plasma levels of IUdR” value ([3]; po IPdR) was “up to 4 μMol/L”. The “adverse events (NCI Common Toxicity Criteria version 4.0)” value ([3]; single po dose 150-2400 mg, 10 patients) was “no drug-related adverse events”, the LD50 (IPdR, one dose/day×14-28 days) was “never reached” and the “TI of IPdR in animals” value (LD50/ED50) was “∞”. The deaths (very high doses, one dose/day×14-28 days) was “no deaths were seen”, the clearance from plasma [4] was “rapidly cleared from plasma in a bi-exponential fashion” and the “radiosensitization compared to continuous infusion IUdR” value ([5]; % IUdR-DNA incorporation as surrogate) was “more effective radiosensitizer”. The “increase in % IUdR-DNA cellular incorporation in tumor vs MTD of po IUdR” value ([5]; IPdR 1 g/kg/d for 6 days, HCT-116) was 2-3 fold, the “IUdR-DNA incorporation in tumors, po IPdR vs ci IUdR” value [5, 11] was “Increased IUdR-DNA” and the “increase in % IUdR-DNA tumor cell incorporation, po IPdR compared to ci IUdR” value ([5]; human tumor xenografts, MTD schedules of IUdR) was 2-3 fold and 2 fold. For the same compound, the “IUdR-DNA incorporation in normal tissues, po IPdR vs ci IUdR” value ([5]; mouse, in vivo, po) was “decreased in normal”, the “decrease in % IUdR-DNA incorporation in bone marrow and intestine, po IPdR compared to ci IUdR” value ([5]; mouse, in vivo, po) was 2 fold and 2-3 fold and the “less % IUdR-DNA incorporation in bone marrow and intestine, po IPdR vs po IUdR” value ([5]; mouse, in vivo, po) was at least 2 fold. For the same compound, the “% IUdR-DNA incorporation, liver tumor metastases vs sc tumor” value ([5]; po IPdR, HCT-116) was “no differential effect”, the “normal tissue systemic toxicities compared to continuous infusion IUdR” value ([5]; weight loss, myelosuppression) was “less normal tissue systemic toxicities” and the “toxicity to uninfected cells or mice” value [6] was “without toxicity”. For the same compound, the antiviral activity ([6]; in vitro and in vivo following po administration) was “significant activity”, the “expected percentage of patients achieving R0-resection” value [7] was over 60% and the “peak plasma levels of IUdR” value ([8]; bolus 250 mg/kg IPdR po) was “up to 45 μM”. The “time to peak plasma levels of IUdR” value ([8]; bolus 250 mg/kg IPdR po) was at most 15 min, the “plasma levels of IPdR at 45 and 90 min” value ([8]; po 1500 mg/kg) was “remain elevated” and the “time to peak plasma level of IPdR” value ([8]; po IPdR bolus) was 10 to 20 min. For the same compound, the “time to peak plasma level of IUdR” value ([8]; po IPdR bolus) was 10 to 20 min, the “time to peak plasma level of metabolite IP” value ([8]; po bolus of IPdR) was 45 to 90 min and the “time to peak plasma level of metabolite IU” value ([8]; po bolus of IPdR) was 45 to 90 min. The “enhancement of response to RT with po IPdR” value [9, 11] was “IUdR. 1.3-1.5 fold”, the “calculated SER for po IPdR” value ([9]; mouse, in vivo, po) was 1.3-1.5 and the “activity of IPdR aldehyde oxidase in other normal tissues vs liver” value (IPdR aldehyde oxidase) was 10 fold less. For the same compound, the tolerated dose (in vivo) was “up to 1 g/kg/d”, the “predicted prolongation of survival” value (high-grade gliomas; [12]) was “up to 70%” and the predicted survival (high-grade gliomas; [12]) was 24 months. For the same compound, the “predicted improvement of duration of survival” value (high-grade gliomas; RT+IPdR or RT+IPdR+TMZ) was 50%, the “predicted increase of the TI of the IR” value (chordoma) was “up to 1.5 ×” and the “further improvement in DFS” value [10] was 10-15%. The “postulated pCR rate” value ([10]; from 10-15%) was 30-35%.

In the case of CON [MX, methoxyamine], the “slower repair of MX-bound AP site than normal AP site” value (AP site) is given as over 300 × and the “effect of IUdR+MX on % IUdR-DNA incorporation and radiosensitization” value (human cancer cell models) is given as “enhances”.
